Values joined by “and” are separate entries in the source; they are usually repeats but may differ in a detail not shown here. Equal entries are not always repeated. Where two headings read alike, the source gives them in different places.
Experiments:
Phytophthora infestans = test: whole plant or invertebrate; assay type: in vivo; details: for pest or weed control at 20 ppm: read-out: Test 1 Measured, component (b) alone 20 ppm; for pest or weed control at 100 ppm: read-out: Test 1 Measured, component (b) alone 100 ppm; for pest or weed control at 500 ppm: read-out: Test 1 Measured, component (b) alone 500 ppm
[1] = test system: Pseudoperonospora cubensis; test: Test 2: control effect against cucumber downy mildew; assay type: in vivo; details: for pest or weed control at 20 ppm: component (b) alone 20 ppm; for pest or weed control at 100 ppm: component (b) alone 100 ppm; for pest or weed control at 500 ppm: component (b) alone 500 ppm
[2] = Phytophthora infestans, in Solanum lycopersicum
[3] = Pseudoperonospora cubensis, read-out: Test 2 Measured
[4] = Phytophthora infestans, in Solanum lycopersicum, read-out: Test 1 Measured preventive value, component (b) alone, 0.4 ppm
[5] = Phytophthora infestans, in Solanum lycopersicum, read-out: Test 1 Measured preventive value, component (b) alone, 2 ppm
[6] = Phytophthora infestans, in Solanum lycopersicum, read-out: Test 1 Measured preventive value, component (b) alone, 10 ppm
[7] = Phytophthora infestans, in Solanum lycopersicum, read-out: Test 1 Measured, component (b) alone, 0.4 ppm
[8] = Phytophthora infestans, in Solanum lycopersicum, read-out: Test 1 Measured, component (b) alone, 2 ppm
[9] = Pseudoperonospora cubensis, applied alone, 2 ppm, read-out: Test 2 preventive value, Measured
[10] = Pseudoperonospora cubensis, applied alone, 10 ppm, read-out: Test 2 preventive value, Measured
[11] = Pseudoperonospora cubensis, component (b) alone, 0.4 ppm, read-out: Test 2 Measured

## CC(C)NC(=O)N1CC(=O)N(c2cc(Cl)cc(Cl)c2)C1=O [Iprodione]
Phytophthora infestans; [2]
  pest or weed control at 20 ppm: 0%
  pest or weed control at 100 ppm: 0%
  pest or weed control at 500 ppm: 5%
[1]; [3]
  pest or weed control at 20 ppm: 0%
  pest or weed control at 100 ppm: 0%
  pest or weed control at 500 ppm: 0%

## CCCOC(=O)NCCCN(C)C [Propamocarb]
Phytophthora infestans; Phytophthora infestans, in Solanum lycopersicum, read-out: Test 1 Measured, component (b) alone 200 ppm
  pest or weed control at 200 ppm: 5%
Phytophthora infestans; Phytophthora infestans, in Solanum lycopersicum, read-out: Test 1 Measured, component (b) alone 1000 ppm
  pest or weed control at 1000 ppm: 21.7%
Phytophthora infestans; Phytophthora infestans, in Solanum lycopersicum, read-out: Test 1 Measured, component (b) alone 5000 ppm
  pest or weed control at 5000 ppm: 48.3%
[1]; Pseudoperonospora cubensis, component (b) alone 200 ppm, read-out: Test 2 Measured
  pest or weed control at 200 ppm: 45%
[1]; Pseudoperonospora cubensis, component (b) alone 1000 ppm, read-out: Test 2 Measured
  pest or weed control at 1000 ppm: 97.5%
[1]; Pseudoperonospora cubensis, component (b) alone 5000 ppm, read-out: Test 2 Measured
  pest or weed control at 5000 ppm: 81.5%

## N#Cc1c(Cl)c(Cl)c(Cl)c(C#N)c1Cl [Chlorothalonil]
Phytophthora infestans; [4]
  pest or weed control at 0.4 ppm: 0%
Phytophthora infestans; [5]
  pest or weed control at 2 ppm: 53.3%
Phytophthora infestans; [6]
  pest or weed control at 10 ppm: 100%
Phytophthora infestans; [7]
  pest or weed control at 0.4 ppm: 0%
Phytophthora infestans; [8]
  pest or weed control at 2 ppm: 62.1%
Phytophthora infestans; Phytophthora infestans, in Solanum lycopersicum, read-out: Test 1 Measured, component (b) alone, 10 ppm
  pest or weed control at 10 ppm: 100%
[1]; Pseudoperonospora cubensis, applied alone, 0.4 ppm, read-out: Test 2 preventive value, Measured
  pest or weed control at 0.4 ppm: 41.8%
[1]; [9]
  pest or weed control at 2 ppm: 100%
[1]; [10]
  pest or weed control at 10 ppm: 100%
[1]; [11]
  pest or weed control at 0.4 ppm: 0%
[1]; Pseudoperonospora cubensis, component (b) alone, 2 ppm, read-out: Test 2 Measured
  pest or weed control at 2 ppm: 80.5%
[1]; Pseudoperonospora cubensis, component (b) alone, 10 ppm, read-out: Test 2 Measured
  pest or weed control at 10 ppm: 100%

## Cc1ccc(-c2c(Cl)nc(C#N)n2S(=O)(=O)N(C)C)cc1 [Cyazofamid]
Phytophthora infestans; Phytophthora infestans, in Solanum lycopersicum, read-out: Test 1 Measured preventive value, component (b) alone 0.08 ppm, average of three repeats
  pest or weed control at 0.08 ppm: 46.7%
Phytophthora infestans; Phytophthora infestans, in Solanum lycopersicum, read-out: Test 1 Measured preventive value, component (b) alone 0.4 ppm, average of three repeats
  pest or weed control at 0.4 ppm: 95.5%
Phytophthora infestans; Phytophthora infestans, in Solanum lycopersicum, read-out: Test 1 Measured preventive value, component (b) alone 2 ppm, average of three repeats
  pest or weed control at 2 ppm: 100%
Phytophthora infestans; Phytophthora infestans, in Solanum lycopersicum, read-out: Test 1 Measured preventive value, component (b) alone, 0.08 ppm
  pest or weed control at 0.08 ppm: 46.7%
Phytophthora infestans; [4]
  pest or weed control at 0.4 ppm: 95.5%
Phytophthora infestans; [5]
  pest or weed control at 2 ppm: 100%
Phytophthora infestans; Phytophthora infestans, in Solanum lycopersicum, read-out: Test 1 Measured, component (b) alone, 0.08 ppm
  pest or weed control at 0.08 ppm: 32%
Phytophthora infestans; [7]
  pest or weed control at 0.4 ppm: 96%
Phytophthora infestans; [8]
  pest or weed control at 2 ppm: 100%
[1]; Pseudoperonospora cubensis, component (b) alone, 0.003 ppm, read-out: Test 2 Measured
  pest or weed control at 0.003 ppm: 0%
[1]; Pseudoperonospora cubensis, component (b) alone, 0.08 ppm, read-out: Test 2 Measured
  pest or weed control at 0.08 ppm: 99%
[1]; [11]
  pest or weed control at 0.4 ppm: 100%
[1]; component (b) alone 0.003 ppm, average of three repeats
  Test 2 Measured preventive value: 0
[1]; component (b) alone 0.08 ppm, average of three repeats
  Test 2 Measured preventive value: 99.5
[1]; component (b) alone 0.4 ppm, average of three repeats
  Test 2 Measured preventive value: 100
[1]; component (b) alone, 0.003 ppm
  Test 2 Measured preventive value: 0
[1]; component (b) alone, 0.08 ppm
  Test 2 Measured preventive value: 99.5
[1]; component (b) alone, 0.4 ppm
  Test 2 Measured preventive value: 100

## Cc1cc(C(F)(F)F)nn1CC(=O)N1CCC(c2nc(C3OCc4c(F)ccc(OS(C)(=O)=O)c4CO3)cs2)CC1 (centres unmarked) [Compound 1-8, 4-[4-(6-fluoro-9-methylsulfonyloxy-1,5-dihydro-3H-2,4-benzodioxepin-3-yl)-2-thiazolyl]-1-[2-[5-methyl-3-(trifluoromethyl)-1H-pyrazol-1-yl]acetyl]piperidine]
Phytophthora infestans; Compound alone, 0.3 ppm
  Test 1 Measured preventive value: 100
Phytophthora infestans; Phytophthora infestans, in Solanum lycopersicum, read-out: Test 1 Measured preventive value, Compound alone, 0.012 ppm
  pest or weed control at 0.012 ppm: 30%
Phytophthora infestans; Phytophthora infestans, in Solanum lycopersicum, read-out: Test 1 Measured preventive value, Compound alone, 0.06 ppm
  pest or weed control at 0.06 ppm: 98%
Phytophthora infestans; Phytophthora infestans, in Solanum lycopersicum, read-out: Test 1 Measured preventive value, Compound alone, 0.3 ppm
  pest or weed control at 0.3 ppm: 100%
Phytophthora infestans; Phytophthora infestans, in Solanum lycopersicum, read-out: Test 1 Measured, Compound alone 0.06 ppm
  pest or weed control at 0.06 ppm: 96.2%
Phytophthora infestans; Phytophthora infestans, in Solanum lycopersicum, read-out: Test 1 Measured, Compound alone 0.3 ppm
  pest or weed control at 0.3 ppm: 100%
Phytophthora infestans; Phytophthora infestans, in Solanum lycopersicum, read-out: Test 1 preventive value, Measured, applied alone, 0.012 ppm
  pest or weed control at 0.012 ppm: 43.3%
Phytophthora infestans; Phytophthora infestans, in Solanum lycopersicum, read-out: Test 1 preventive value, Measured, applied alone, 0.06 ppm
  pest or weed control at 0.06 ppm: 97.7%
Phytophthora infestans; Phytophthora infestans, in Solanum lycopersicum, read-out: Test 1 preventive value, Measured, applied alone, 0.3 ppm
  pest or weed control at 0.3 ppm: 100%
[1]; Compound alone, 0.012 ppm
  Test 2 Measured preventive value: 10 and 12.5 and 15
[1]; Compound alone, 0.06 ppm
  Test 2 Measured preventive value: 95.5 and 96.5 and 97.5
[1]; Compound alone, 0.3 ppm
  Test 2 Measured preventive value: 100
[1]; Pseudoperonospora cubensis, Compound alone 0.06 ppm, read-out: Test 2 Measured
  pest or weed control at 0.06 ppm: 98.8%
[1]; Pseudoperonospora cubensis, Compound alone 0.3 ppm, read-out: Test 2 Measured
  pest or weed control at 0.3 ppm: 100%
[1]; Pseudoperonospora cubensis, applied alone, 0.06 ppm, read-out: Test 2 preventive value, Measured
  pest or weed control at 0.06 ppm: 98%
[1]; Pseudoperonospora cubensis, applied alone, 0.3 ppm, read-out: Test 2 preventive value, Measured
  pest or weed control at 0.3 ppm: 100%
[1]; applied alone, 0.06 ppm
  Test 2 preventive value, Measured: 98

## C[C@@]1(c2ccc(Oc3ccccc3)cc2)OC(=O)N(Nc2ccccc2)C1=O (racemic) [Famoxadone]
Phytophthora infestans; Phytophthora infestans, in Solanum lycopersicum, read-out: Test 1 preventive value, Measured, applied alone, 2 ppm
  pest or weed control at 2 ppm: 0%
Phytophthora infestans; Phytophthora infestans, in Solanum lycopersicum, read-out: Test 1 preventive value, Measured, applied alone, 10 ppm
  pest or weed control at 10 ppm: 0%
Phytophthora infestans; Phytophthora infestans, in Solanum lycopersicum, read-out: Test 1 preventive value, Measured, applied alone, 50 ppm
  pest or weed control at 50 ppm: 10%
[1]; [9]
  pest or weed control at 2 ppm: 0%
[1]; [10]
  pest or weed control at 10 ppm: 0%
[1]; Pseudoperonospora cubensis, applied alone, 50 ppm, read-out: Test 2 preventive value, Measured
  pest or weed control at 50 ppm: 0%

## N#Cc1c[nH]cc1-c1cccc2c1OC(F)(F)O2 [Fludioxonil]
Phytophthora infestans; [2]
  pest or weed control at 20 ppm: 0%
  pest or weed control at 100 ppm: 6.7%
  pest or weed control at 500 ppm: 18.3%
[1]; [3]
  pest or weed control at 20 ppm: 87.5%
  pest or weed control at 100 ppm: 97%
  pest or weed control at 500 ppm: 98.3%

## CCC(C)(NC(=O)c1cc(Cl)c(C)c(Cl)c1)C(=O)CCl (centres unmarked) [Zoxamide]
Phytophthora infestans; [5]
  pest or weed control at 2 ppm: 83.3%
Phytophthora infestans; [6]
  pest or weed control at 10 ppm: 95%
Phytophthora infestans; Phytophthora infestans, in Solanum lycopersicum, read-out: Test 1 Measured preventive value, component (b) alone, 50 ppm
  pest or weed control at 50 ppm: 99%
[1]; component (b) alone, 2 ppm
  Test 2 Measured preventive value: 94
[1]; component (b) alone, 10 ppm
  Test 2 Measured preventive value: 97.3
[1]; component (b) alone, 50 ppm
  Test 2 Measured preventive value: 98.8
